Test results: publication PMC12693416, “From Lipid Regulation to Neuroprotection: Multitarget (Benzo)thiazine Derivatives as Promising Leads” (Molecules, 2025)
Read-outs that look alike come from different tables or passages of the source.

Legend:
AChE = settings: read-out: IC50 against AChE; cited from earlier work
[1] = tested on: mouse liver microsomal lipid peroxidation; assay: Inhibition of mouse liver microsomal lipid peroxidation (LP); settings: read-out: LP IC50 Value; 45 min incubation
[2] = Iron chelation (ferrozine assay); settings: for % of Fe(II) Chelation (at 100 μM): 100 μM compound, Fe2+ 20 μM
Method: […] The reaction was initiated with the addition of a 100 μM aqueous ferrozine solution, which chelates iron ions, resulting in an increased maximum absorbance at 562 nm. After incubation at 37 °C for 10 min, the mixture’s absorbance is measured at 562/700 nm. Each value is expressed as the mean of 3 tests per sample [46].

[3] = Radical scavenging of DPPH; settings: DPPH 200 μM, 30 min incubation
Method: Compounds, dissolved in absolute methanol, at concentrations of 25–400 μM, were added to an equal volume of a methanolic solution of DPPH (final concentration 200 μM) at room temperature (22 ± 2 °C).

[4] = biological target: soybean lipoxygenase (LOX-3); assay: Soybean lipoxygenase (LOX-3) inhibition; format: biochemical; settings: after 5 min of incubation; sodium linoleate 100 μM, pH 9.0
Method: Lipoxygenase (LOX) inhibitory activity was determined using soybean lipoxygenase (250 U/mL) and sodium linoleate (100 μM) as substrate, in Tris–HCl buffer pH 9.0.

[5] = biological target: T1, acetylcholinesterase from eel (Electrophorus electricus, UniProt O42275); assay: Acetylcholinesterase (AChE) inhibition (Ellman); format: biochemical; settings: for inhibition at 300 µM: read-out: AChE Inhibition (%), 300 μM compound
T1 construct: purchased Sigma
T1 sequence (O42275 24-633): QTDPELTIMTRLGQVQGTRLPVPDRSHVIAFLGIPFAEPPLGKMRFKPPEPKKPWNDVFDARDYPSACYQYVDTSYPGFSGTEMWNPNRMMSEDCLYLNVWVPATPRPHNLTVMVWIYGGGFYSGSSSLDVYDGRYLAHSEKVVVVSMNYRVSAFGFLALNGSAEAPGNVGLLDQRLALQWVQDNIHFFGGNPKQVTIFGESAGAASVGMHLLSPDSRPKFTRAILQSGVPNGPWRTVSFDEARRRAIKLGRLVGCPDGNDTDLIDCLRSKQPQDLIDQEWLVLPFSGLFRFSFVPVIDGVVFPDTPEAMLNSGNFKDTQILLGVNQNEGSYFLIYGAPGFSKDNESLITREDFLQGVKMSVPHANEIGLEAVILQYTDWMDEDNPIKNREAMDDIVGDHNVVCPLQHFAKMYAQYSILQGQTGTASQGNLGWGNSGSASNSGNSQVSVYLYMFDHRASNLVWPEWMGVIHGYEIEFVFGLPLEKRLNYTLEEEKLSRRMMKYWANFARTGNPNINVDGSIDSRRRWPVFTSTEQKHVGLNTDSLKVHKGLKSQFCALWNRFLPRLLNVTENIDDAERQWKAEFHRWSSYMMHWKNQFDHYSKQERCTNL
Method: (0.31 mM) in phosphate buffer with pH = 7. The incubation mixture is monitored for 7 min at 37 °C.

hyperlipidaemic mice = assay: Tyloxapol (Triton WR 1339)-induced hyperlipidemia, plasma lipid parameters; format: in vivo; settings: i.p. 84 μmol/kg; for inhibition in vivo at 84 µmol/kg / change in vivo at 84 µmol/kg: Mus musculus, ip, 24 h
Method: An aqueous solution of Triton WR 1339 was given i.p. to mice (400 mg/kg of body weight) and one hour later the test compounds (84 μmol/kg of body weight), dissolved in saline or saline only, were administered i.p. After 24 h, blood was taken from the aorta/heart and used for the determination of plasma total cholesterol (TC), triglyceride (TG) levels, and high-density lipoprotein (HDL) levels, using commercially available kits (Biosis Cholesterol Enzymatic/PAP, Biosis Triglycerides GPO/PAP, and Biosis HDL Phosphovolframic, Biosis, Athens Greece). Levels of plasma lipids were determined in duplicate while values presented are the mean from 8 animals (per compound). The levels of low-density lipoprotein (LDL) are calculated according to the equation: LDL (mg/dL) = 3/4 * (TC-HDL).

[6] = tested on: carrageenan-induced mouse paw edema; assay: Carrageenan-induced mouse paw edema; format: in vivo, C57BL/6 mice; settings: ip, 3.5 h, i.p. 0.30 mmol/kg, female C57BL/6, 3.5 h after carrageenan, read-out: % Edema (decrease of carrageenan-induced paw edema vs control)
Method: For the in vivo anti-inflammatory activity, C57BL/6 mice were injected with 0.025 mL carrageenan (2% w/v solution in saline) i.d. into the right hind paw, the left paw serving as control. The test compounds dissolved in saline (300 μmol/kg) were given i.p. right after the carrageenan injection, and 3.5 h later the produced edema was estimated as paw weight increase. Results are expressed as percentage of reduction in paw-edema and are the mean of 6 animals (per compound).

[7] = tested on: plasma of hyperlipidaemic mice; assay: Total antioxidant capacity (TAC) of plasma in hyperlipidaemic mice; format: in vivo; settings: Mus musculus, ip, 24 h, i.p. 84 μmol/kg, read-out: Total Antioxidant Capacity (TAC) Increase (%)
[8] = plasma, vs tyloxapol control, read-out: % Total Cholesterol (TC) Reduction
[9] = plasma, vs tyloxapol control, read-out: % Triglycerides (TG) Reduction
[10] = plasma, vs tyloxapol control, read-out: % HDL Increase
[11] = LDL calculated as 3/4*(TC-HDL), read-out: % LDL Decrease
[12] = ratio calculated, read-out: % HDL/LDL Increase (antiatherogenic index)

## COc1cc(C(=O)O)cc(OC)c1O [syringic acid]
AChE
  IC50: ~149 µM

## O=C(/C=C/c1ccc(O)c(O)c1)O[C@@H]1C[C@](O)(C(=O)O)C[C@@H](O)[C@H]1O [chlorogenic acid]
AChE
  IC50: ~277 µM

## CC(C)(C)c1cc(C(=O)N2CCSC(c3ccc(-c4ccccc4)cc3)C2)cc(C(C)(C)C)c1O (centres unmarked) [Compound 5, (2-([1,1′-Biphenyl]-4-yl)thiomorpholino)(3,5-ditertbutyl-4-hydroxyphenyl)methanone]
[1]
  IC50: 250 µM
[2]
  % of Fe(II) Chelation (at 100 μM): 0%
[3]
  IC50: 300 µM
[4]
  IC50: 150 µM
[5]
  inhibition at 300 µM: 24%
Hyperlipidaemic mice; [8]
  inhibition in vivo at 84 µmol/kg: 55%
Hyperlipidaemic mice; [9]
  inhibition in vivo at 84 µmol/kg: 50%
[6]
  inhibition in vivo at 300 µmol/kg: 35%
[7]
  change in vivo at 84 µmol/kg: 0%

## O=C(c1cc(O)c(O)c(O)c1)N1CC(c2ccc(-c3ccccc3)cc2)Sc2ccccc21 (centres unmarked) [Compound 13, (2-([1,1′-Biphenyl]-4-yl)-2,3-dihydro-4H-benzo[b][1,4]thiazin-4-yl)(3,4,5-trihydroxyphenyl)methanone]
[1]
  IC50: 24 µM
[2]; 10 μM compound
  % of Fe(II) Chelation at 10 μM: 12%
[2]
  % of Fe(II) Chelation (at 100 μM): 91%
[3]
  IC50: 36 µM
[4]
  IC50: 37 µM
[5]
  inhibition at 300 µM: ~45%
Hyperlipidaemic mice; [10]
  change in vivo at 84 µmol/kg: 25%
Hyperlipidaemic mice; [11]
  inhibition in vivo at 84 µmol/kg: 62%
Hyperlipidaemic mice; [8]
  inhibition in vivo at 84 µmol/kg: 47%
Hyperlipidaemic mice; [9]
  inhibition in vivo at 84 µmol/kg: 53%
[6]
  inhibition in vivo at 300 µmol/kg: ≤ 60%
[7]
  change in vivo at 84 µmol/kg: 60%

## c1ccc(-c2ccc(C3CNc4ccccc4S3)cc2)cc1 (centres unmarked) [Compound 11, 2-([1,1′-Biphenyl]-4-yl)-3,4-dihydro-2H-benzo[b][1,4]thiazine]
[1]
  IC50: 30 µM
[2]
  % of Fe(II) Chelation (at 100 μM): 10%
[3]
  IC50: > 400 µM
[4]
  IC50: 134 µM
[5]; 300 μM compound
  AChE Inhibition (%): inactivity
Hyperlipidaemic mice; [10]
  change in vivo at 84 µmol/kg: 101%
Hyperlipidaemic mice; [11]
  inhibition in vivo at 84 µmol/kg: 48%
Hyperlipidaemic mice; [8]
  inhibition in vivo at 84 µmol/kg: 23%
Hyperlipidaemic mice; [9]
  inhibition in vivo at 84 µmol/kg: 59%
[6]
  inhibition in vivo at 300 µmol/kg: 40%
[7]
  change in vivo at 84 µmol/kg: > 200%

## CC(C)Cc1ccc(C(C)C(=O)N2CCSC(c3ccc(-c4ccccc4)cc3)C2)cc1 (centres unmarked) [Compound 7, 1-(2-([1,1′-Biphenyl]-4-yl)thiomorpholino)-2-(4-isobutylphenyl)propan-1-one]
[1]
  IC50: 299 µM
[2]
  % of Fe(II) Chelation (at 100 μM): 3%
[3]
  IC50: > 400 µM
[4]
  IC50: 22 µM
[5]
  inhibition at 300 µM: 27%
Hyperlipidaemic mice; [8]
  inhibition in vivo at 84 µmol/kg: 27%
Hyperlipidaemic mice; [9]
  inhibition in vivo at 84 µmol/kg: 70%
[6]
  inhibition in vivo at 300 µmol/kg: 27%
[7]
  change in vivo at 84 µmol/kg: 0%

## O=C(c1cccnc1)N1CCSC(c2ccc(-c3ccccc3)cc2)C1 (centres unmarked) [Compound 9]
[1]
  IC50: > 1000 µM
[2]
  % of Fe(II) Chelation (at 100 μM): 2%
[3]
  IC50: > 400 µM
[4]
  IC50: 192 µM
[5]
  inhibition at 300 µM: 33%
Hyperlipidaemic mice; [12]
  change in vivo at 84 µmol/kg: 105%
Hyperlipidaemic mice; [11]
  inhibition in vivo at 84 µmol/kg: 44%
Hyperlipidaemic mice; [8]
  inhibition in vivo at 84 µmol/kg: 35%
Hyperlipidaemic mice; plasma, TG increase, not reduction
  % Triglycerides (TG), value marked footnote 1: increase percentage: 33 *^,1%
[6]
  inhibition in vivo at 300 µmol/kg: 34%
[7]
  change in vivo at 84 µmol/kg: 60%

## O=C(/C=C/c1ccccc1)N1CCSC(c2ccc(-c3ccccc3)cc2)C1 (centres unmarked) [Compound 8, (E)-1-(2-([1,1′-Biphenyl]-4-yl)thiomorpholino)-3-phenylprop-2-en-1-one]
[1]
  IC50: > 1000 µM
[2]
  % of Fe(II) Chelation (at 100 μM): 5%
[3]
  IC50: > 400 µM
[4]
  IC50: > 200 µM
[5]
  inhibition at 300 µM: 19%
Hyperlipidaemic mice; [10]
  change in vivo at 84 µmol/kg: 9%
Hyperlipidaemic mice; [12]
  change in vivo at 84 µmol/kg: 91%
Hyperlipidaemic mice; [11]
  inhibition in vivo at 84 µmol/kg: 57%
Hyperlipidaemic mice; [8]
  inhibition in vivo at 84 µmol/kg: 45%
Hyperlipidaemic mice; [9]
  inhibition in vivo at 84 µmol/kg: 53%
[6]
  inhibition in vivo at 300 µmol/kg: 46%
[7]
  change in vivo at 84 µmol/kg: 104%

## COc1cc(C(=O)N2CC(c3ccc(-c4ccccc4)cc3)Sc3ccccc32)cc(OC)c1OC (centres unmarked) [Compound 14, (2-([1,1′-Biphenyl]-4-yl)-2,3-dihydro-4H-benzo[b][1,4]thiazin-4-yl)(3,4,5-trimethoxyphenyl)methanone]
[1]
  IC50: > 1000 µM
[2]
  % of Fe(II) Chelation (at 100 μM): 6%
[3]
  IC50: > 400 µM
[4]
  IC50: 71 µM
[5]
  inhibition at 300 µM: ~45%
Hyperlipidaemic mice; [10]
  change in vivo at 84 µmol/kg: 13%
Hyperlipidaemic mice; [11]
  inhibition in vivo at 84 µmol/kg: 73%
Hyperlipidaemic mice; [8]
  inhibition in vivo at 84 µmol/kg: 51%
Hyperlipidaemic mice; [9]
  inhibition in vivo at 84 µmol/kg: 50%
[6]
  inhibition in vivo at 300 µmol/kg: 38%
[7]
  change in vivo at 84 µmol/kg: 144%
